Measured values as given in patent US11464825B2, “Adiponectin peptidomimetics for treating ocular disorders” (Allysta Pharmaceuticals, Inc., priority 2015, dated 2022).
Primed or numbered codes have the meaning given here. Where no end group is shown, it is not given here. [ ]: non-standard residue; d: D form. Dab′ = 2,3-diamino butyric acid; Nva = CCC[C@H](N)C(=O)O

Assays:
[1] = tested on: experimental dry eye (EDE) mice; test: Corneal fluorescein staining score in experimental dry eye (EDE) mice; assay type: in vivo, C57BL/6 mice; details: 0.01% in BSS, 3 times a day; for corneal staining (corneal irregularity) compared to untreated EDE mice: topical bilateral 2 μl/eye, score 0-4 averaged over five regions, day 5 and day 10, p-value <0.05 vs. EDE; for corneal surfaces compared to untreated normal mice (UT) and positive control globular adiponectin-treated mice (gAdipo): topical, EDE mice
Protocol: (§1) Experimental dry eye (EDE) was induced in 8-week old female C57BL/6 mice by subcutaneous injection of 0.5 mg/0.2 mL scopolamine hydrobromide (Sigma-Aldrich, St. Louis, Mo.) three times a day (9 AM, 1:30 PM and 6 PM). A dose of 0.3 mL scopolamine hydrobromide was administered at each injection. The mice were also exposed to an air draft and 30% ambient humidity. 6 experimental groups used in this study included: (1) untreated control mice (UT; no dry eye treatment and no topical treatment); (2) untreated EDE control mice (EDE; received no topical administration); (3) EDE control mice received a balanced salt solution (BSS); (4) EDE mice received 0.01% single chain adiponectin peptidomimetic (ADP355) in BSS; (5) EDE mice receiving 0.01% peptide dimer adiponectin peptidomimetic (ADP399) in BSS; and (6) EDE mice receiving 0.01% recombinant globular adiponectin (gAdipo) in BSS. Each group included 5 mice. EDE mice treated with BSS received topical bilateral administration of […], 3 times a day. EDE mice treated with ADP355 received topical bilateral administration of 2 μl/eye, 3 times a day. EDE mice treated with ADP-399 received topical bilateral administration of 2 μl/eye, 3 times a day. The gAdipo treated mice served as a positive treatment control. Mice were evaluated at baseline, day 5 and day 10 after the treatment initiation. In some experiments, ADP355, ADP-399 and gAdipo were resuspended in 0.01% BSA.
The severity of corneal epithelial damage was evaluated by corneal fluorescein staining. Briefly, 1% fluorescein dye (1 μl) was instilled into the eye and then the eye was washed with saline. 10 minutes after application of the dye, the eye was photographed with a slip lamp microscope using a cobalt blue light. The stained area was graded using a scoring system by two blinded observers. […] The average score from the five regions was recorded. […] In addition, the adiponectin peptidomimetic-treated mice (ADP355 and ADP-399) had corneal surfaces that were similar to those of untreated normal mice (UT) and positive control globular adiponectin-treated mice (gAdipo). The corneal surface scores in all groups at day 10 were similar to those at day 5 after treatment initiation.

[2] = tested on: experimental dry eye (EDE) mice; test: Tear volume by phenol red thread tear test in experimental dry eye (EDE) mice; assay type: in vivo, C57BL/6 mice; details: 0.01% in BSS, 3 times a day; for tear production, as measured by tear volume, compared to untreated or BSS treated EDE mice: topical bilateral 2 μl/eye, day 5 and day 10 after treatment initiation, p-value <0.05 vs. EDE; for difference in tear volume among those treated with ADP355, ADP399 and globular adiponectin: topical, EDE mice
Protocol: as §1
Tear volume was measured using a phenol red thread tear test. Briefly, a cotton thread treated with phenol red at its tip (Zone-Quick; Oasis, Glendora, Calif.) was held with jeweler's forceps and placed in the tear meniscus of the lateral canthus for 20 secs to contact tear fluid. Using a microscope, the length of the red portion (wet portion) of the thread was measured in millimeters. A standard curve was derived to convert the distance measurement into tear volume.

(DAsn-Ile-Pro-Nva-Leu-Tyr-DSer-Phe-Ala-DSer-His-Pro)2-Dab-NH2 ([dN]IP[Nva]LY[dS]FA[dS]HP[Dab′]-NH2; also: branched dimer: two chains joined via Dab) [ADP399, linear branched dimer of ADP355]
corneal staining (corneal irregularity) compared to untreated EDE mice [1]: less corneal staining | corneal surfaces compared to untreated normal mice (UT) and positive control globular adiponectin-treated mice (gAdipo) [1]: similar | tear production, as measured by tear volume, compared to untreated or BSS treated EDE mice [2]: higher | difference in tear volume among those treated with ADP355, ADP399 and globular adiponectin [2]: no significant difference

DAsn-Ile-Pro-Nva-Leu-Tyr-DSer-Phe-Ala-DSer-NH2 ([dN]IP[Nva]LY[dS]FA[dS]-NH2; N-terminus assumed; SMILES CCC[C@H](NC(=O)[C@@H]1CCCN1C(=O)[C@@H](NC(=O)[C@H](N)CC(N)=O)[C@@H](C)CC)C(=O)N[C@@H](CC(C)C)C(=O)N[C@@H](Cc1ccc(O)cc1)C(=O)N[C@H](CO)C(=O)N[C@@H](Cc1ccccc1)C(=O)N[C@@H](C)C(=O)N[C@H](CO)C(N)=O) [ADP355, single chain adiponectin peptidomimetic]
corneal staining (corneal irregularity) compared to untreated EDE mice [1]: less corneal staining | corneal surfaces compared to untreated normal mice (UT) and positive control globular adiponectin-treated mice (gAdipo) [1]: similar | tear production, as measured by tear volume, compared to untreated or BSS treated EDE mice [2]: higher | difference in tear volume among those treated with ADP355, ADP399 and globular adiponectin [2]: no significant difference
